Patent US20250352512A2, “C4-S[…] DERIVATIVES AND METHODS OF USING” (priority 2022, published 2025)
Like-named read-outs stand apart in the source and are kept apart here.

Experiments:
5-HT1A receptor = molecular target: T1, 5-HT1A receptor (Homo sapiens, UniProt P08908); assay type: cell-based; conditions: for 5-HT1A receptor modulation: comparison of +5-HT1A with -5-HT1A cultures, 4 mM forskolin
T1 construct: host or cells: CHO-K1
T1 sequence (P08908 1-422): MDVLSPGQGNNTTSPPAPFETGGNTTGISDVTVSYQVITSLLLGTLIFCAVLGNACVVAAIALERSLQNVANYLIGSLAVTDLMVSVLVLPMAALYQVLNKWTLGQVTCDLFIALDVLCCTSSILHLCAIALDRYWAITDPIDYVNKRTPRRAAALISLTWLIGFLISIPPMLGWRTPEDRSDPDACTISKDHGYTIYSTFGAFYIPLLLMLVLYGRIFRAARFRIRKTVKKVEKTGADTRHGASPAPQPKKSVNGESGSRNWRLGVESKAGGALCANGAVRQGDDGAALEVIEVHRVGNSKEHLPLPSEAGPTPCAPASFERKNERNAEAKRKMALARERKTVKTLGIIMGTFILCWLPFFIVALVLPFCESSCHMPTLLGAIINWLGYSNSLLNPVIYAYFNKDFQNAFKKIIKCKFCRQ

[1] = molecular target: T2, 5-HT2A receptor (5-HT2AR) (Mus musculus, UniProt P35363); assay: Drug-induced Head Twitch Response (HTR) in mice; assay type: in vivo; conditions: C57BL/6-Elite mice, i.p. 1 mg/kg, 15-to-30-minute window following administration
T2 construct: tissue Charles River; host or cells: living C57BL/6-Elite mice (neuronal receptor)
T2 sequence (P35363 whole entry): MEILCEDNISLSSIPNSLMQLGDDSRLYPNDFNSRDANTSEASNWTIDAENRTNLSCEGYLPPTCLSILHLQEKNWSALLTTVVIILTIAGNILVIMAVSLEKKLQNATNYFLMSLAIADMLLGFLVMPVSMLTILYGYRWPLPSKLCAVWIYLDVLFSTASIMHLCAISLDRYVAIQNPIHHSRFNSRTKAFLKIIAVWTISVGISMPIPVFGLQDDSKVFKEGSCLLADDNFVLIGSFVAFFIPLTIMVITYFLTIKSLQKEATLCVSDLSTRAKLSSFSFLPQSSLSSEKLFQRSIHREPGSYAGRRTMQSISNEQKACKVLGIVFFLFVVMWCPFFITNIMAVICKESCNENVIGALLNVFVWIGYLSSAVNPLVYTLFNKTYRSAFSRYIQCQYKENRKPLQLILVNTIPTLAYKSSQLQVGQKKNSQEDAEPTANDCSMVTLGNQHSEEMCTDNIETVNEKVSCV

5-HT2A receptor = 5-HT2A receptor (Homo sapiens, UniProt P28223); assay: [3H]ketanserin radioligand competition binding assay (SPA); conditions: fixed (1 nM) [3H]ketanserin, membranes containing 5-HT2A
Sequence of 5-HT2A receptor (P28223 whole entry): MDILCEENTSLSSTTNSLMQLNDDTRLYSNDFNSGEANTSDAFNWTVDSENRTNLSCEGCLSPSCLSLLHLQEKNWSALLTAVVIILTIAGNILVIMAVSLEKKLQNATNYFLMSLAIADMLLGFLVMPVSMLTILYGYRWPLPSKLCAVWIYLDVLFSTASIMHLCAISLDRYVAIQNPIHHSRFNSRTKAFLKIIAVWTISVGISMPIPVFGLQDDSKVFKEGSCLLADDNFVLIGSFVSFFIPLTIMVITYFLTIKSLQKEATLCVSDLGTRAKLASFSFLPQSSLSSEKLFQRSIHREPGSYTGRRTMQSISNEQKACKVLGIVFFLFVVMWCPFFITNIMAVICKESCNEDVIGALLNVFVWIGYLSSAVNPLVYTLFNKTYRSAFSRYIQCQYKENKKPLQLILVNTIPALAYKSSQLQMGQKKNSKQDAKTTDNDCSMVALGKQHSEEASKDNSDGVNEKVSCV

[2] = Stability assay in enzyme-free control buffer; assay type: in vitro ADME; conditions: enzyme-free buffer pH 7.4, 37° C., 2 hours
Text: (§1) A fundamental evaluation in drug development is the assessment of absorption, distribution, metabolism, excretion, and pharmacokinetics (ADME/PK) (Eddershaw et al., 2000, Drug Discovery Today 5(9): 409-414). […] Drug stability upon exposure to human liver microsomes and liver S9 cellular fractions is a common in vitro assay to approximate in vivo, liver-based drug metabolism (Richardson et al., 2016 Drug Metabolism Letters 10:83-90). First-pass metabolism is also often approximated in vitro using intestinal microsome and cellular S9 fractions (Hatley et al., 2017, Biopharmaceuticals & Drug Disposition, 38(2):155-160). […] Supernatants were analyzed for the presence of candidate prodrugs (parent molecule) and psilocin (the predicted metabolite) using Orbitrap LC-MS (Thermo Scientific) using previously described methods (Menendez-Perdomo et al., 2021, J. Mass Spectrom., 56: e4683). […] Assay concentrations (μM) of both parent ‘prodrug’ molecule and psilocin metabolite, as quantified through LC-MS using routine standard curve procedures, were plotted as functions of assay time (minutes). The metabolism rate (TI/2) was determined from the metabolism curve plot using the one phase decay feature of GraphPad PRISM software (Version 9.2.0). The quantity of parent prodrug at time zero was set as 100%. […]

[3] = Metabolic stability / psilocin release in human AB serum; assay type: in vitro ADME; conditions: 10% human AB serum
Text: as §1

[4] = Metabolic stability / psilocin release in human liver microsomes; assay type: in vitro ADME; conditions: 2.5 μM, 400 μg/ml HLM, NADPH, 37° C.
Text: as §1

[5] = Metabolic stability / psilocin release in human liver S9 fractions; assay type: in vitro ADME; conditions: 2.5 μM, 400 μg/ml HLS9, NADPH, 37° C.
Text: as §1

[6] = +5-HT1A cells stimulated with 4 mM forskolin

## CN(C)CCc1c[nH]c2cccc(O[Si](c3ccccc3)(c3ccccc3)C(C)(C)C)c12 [A(III)]
5-HT1A receptor
  5-HT1A receptor modulation: suggests receptor modulation at higher ligand concentrations
[1]
  incidences of Head Twitch Response (HTR) relative to vehicle: Elevated incidences of HTR

## CN(C)CCc1c[nH]c2cccc(OC(=O)OCC(Cl)(Cl)Cl)c12 [B(IV)]
5-HT1A receptor
  5-HT1A receptor modulation: suggests no receptor modulation
[1]
  incidences of Head Twitch Response (HTR) relative to vehicle: Elevated incidences of HTR

## CCCCCCOC(=O)Oc1cccc2[nH]cc(CCN(C)C)c12 [B(V)]
5-HT1A receptor
  5-HT1A receptor modulation: suggests no receptor modulation

## CCC(=O)OCOc1cccc2c1c(CCN(C)C)cn2C(=O)CC [D(XIX)]
5-HT1A receptor
  5-HT1A receptor modulation: suggests significant receptor modulation
[1]
  incidences of Head Twitch Response (HTR) relative to vehicle: Elevated incidences of HTR

## CN(C)CCc1c[nH]c2cccc(OP3(=O)OCC(C)(C)CO3)c12 [F(II)]
5-HT1A receptor
  5-HT1A receptor modulation: reveals receptor modulation
[1]
  incidences of Head Twitch Response (HTR) relative to vehicle: Elevated incidences of HTR

## CN(C)CCc1c[nH]c2cccc(O)c12 [psilocin, reference compound]
5-HT1A receptor; [6]
  cAMP levels with increasing doses of ligand: reduction in cAMP levels
5-HT2A receptor
  competition binding at the 5-HT2A receptor: binding

## CN(C)CCc1c[nH]c2cccc(OP(=O)(O)O)c12 [psilocybin]
[2]
  stability in assay buffer: stability of psilocybin was confirmed in assay buffer
[3]
  stability and conversion to psilocin in serum: stable in serum with no conversion to psilocin
[4]
  stability and conversion to psilocin in liver fractions (HLM): stable in liver fractions with no conversion to psilocin
[5]
  stability and conversion to psilocin in liver fractions (HLS9): stable in liver fractions with no conversion to psilocin

## NCCc1c[nH]c2ccc(O)cc12 [serotonin, reference compound]
5-HT1A receptor
  cAMP levels with increasing doses of ligand: reduction in cAMP levels

## N[C@@H](Cc1c[nH]c2ccccc12)C(=O)O [tryptophan, reference compound]
5-HT1A receptor; [6]
  cAMP levels with increasing doses of ligand: no reduction in cellular cAMP levels
5-HT2A receptor
  competition binding at the 5-HT2A receptor: no binding
